Measured values reported in PMC7848885, “Population Pharmacokinetics of Intraventricular Vancomycin in Neonatal Ventriculitis, A Preterm Pilot Study” (European Journal of Pharmaceutical Sciences, 2021).

What was measured:
[1] = Observed plasma and CSF vancomycin levels (QMS immunoassay); assay type: in vivo, preterm infants; conditions: median (range)
Description: CSF WCC, microbiological CSF culture results, CSF protein levels, IV vancomycin and intraventricular vancomycin doses administered, all available CSF vancomycin levels and serum vancomycin levels, dates and times of IV vancomycin doses, intraventricular vancomycin doses, serum and CSF vancomycin levels.
CSF samples for vancomycin levels were taken when the ventricular access device was accessed for routine CSF drainage, as needed for clinical management of hydrocephalus, for the individual baby. Due to this routine practice, the CSF vancomycin levels were taken at random time points. Repeat intraventricular vancomycin dose was administered if the level dropped under the threshold of 10mg/L. The target CSF vancomycin concentration was at least ten times above the breakpoint of MIC for CoNS. This was chosen as these were the principal infecting organisms in the defined neonatal cohort and the study hospital's MIC breakpoint for CoNS is 1 mg/L (EUCAST MIC breakpoint, 4 mg/L) ([EUCAST, 2017]).
The CSF vancomycin measurements were undertaken in the local microbiology laboratory, which is a national referral centre for antibiotic assays, through quantitative microsphere system (QMS® Thermo Scientific)-based immunoassay ([Thermo Scientific. QMS ® Vancomycin (VANCO), 2015]). […]

[2] = tested on: preterm infants with neonatal ventriculitis; experiment: Time to CSF sterilisation versus model-predicted CSF AUC(0-24) and C average; assay type: in vivo; conditions: observed trend, 8 preterm infants; paper says the data is too erratic to interpret
Description: Time to sterilisation was defined as length of time taken for CSF WCC to fall to < 20/mm^3 and simultaneously achieve sterile CSF.
Area under the curve (AUC) predictions were generated for CSF vancomycin from the final model. We explored the relationships between AUC 0-24 and average CSF concentration (C average; defined as AUC(0-t)/t; t = time) and time to sterilisation of CSF.

[3] = tested on: Staphylococcal epidermidis; conditions: adult CSF samples, MIC 2mg/L; ref Nagl et al., 1999; cited from earlier work
Experimental: (§1) Staphylococci species are the predominant causative organisms in neonatal ventriculitis ([Adams-Chapman et al., 2008]; [Parasuraman et al., 2018]). […] However, IV vancomycin is only able to achieve CSF vancomycin concentrations of 1.1-6mg/L, across the adult and the neonatal population ([Li et al., 2015]; [Beach et a ...

Staphylococcus aureus = conditions: adult CSF samples, MIC 2mg/L; ref Nagl et al., 1999; cited from earlier work
Experimental: as §1

[4] = cited from earlier work
Description: Staphylococci species are the predominant causative organisms in neonatal ventriculitis ([Adams-Chapman et al., 2008]; [Parasuraman et al., 2018]). […] A more recent work by Li et al highlighted that the disturbance of the blood brain barrier was important in transfer of IV vancomycin into the ...

[5] = cited from earlier work; remark: listed apart in the source
Description: Staphylococci species are the predominant causative organisms in neonatal ventriculitis ([Adams-Chapman et al., 2008]; [Parasuraman et al., 2018]).

[6] = ref Schilling et al., 2011; cited from earlier work
Description: The CSF protein was examined as a covariate in this study as 50-55% of vancomycin is protein bound ([Schilling et al., 2011]). As the CSF protein in a preterm baby is higher than that of a term infant, we hypothesised that this may have an effect on the unbound vancomycin in the CSF ([Majumdar et al., 2013]; [De Cock et al., 2017]). However, no significant association was found between VI, CSF protein and CSF vancomycin levels. This is an important finding in the preterm population, to review current intraventricular vancomycin prescribing parameters and practice.

[7] = with CSF vancomycin level ranging from 2.5-230.7 mg/L, preterm infants; ref Parasuraman et al., 2018; cited from earlier work
Experimental: We have previously examined the relationship of 4 different intraventricular vancomycin doses, between 3mg to 15mg, and the CSF vancomycin concentrations, in a small cohort of preterm infants of < 28 weeks gestation ([Parasuraman et al., 2018]). In the four different dose models, the CSF vancomycin levels were adequately maintained at a level of at least ten times above the breakpoint of MIC (>10 mg/L) for coagulase-negative staphylococci (CoNS) ([Parasuraman et al., 2018]).

[8] = cited from earlier work; remark: listed apart in the source
[9] = Population pharmacokinetic (NLME) model of plasma vancomycin after IV dosing
[10] = Population pharmacokinetic (NLME) model of CSF vancomycin after intraventricular dosing
Experimental: Intraventricular vancomycin was given when the ventricular access device was accessed for the routine drainage. Intraventricular vancomycin concentration used was 10 mg/mL, in a sterile preparation, and was given as a slow bolus over 2 minutes. The intraventricular vancomycin was given at the end of the CSF drainage. The ventricular access device was flushed with 1ml of sterile NaCl 0.9% following instillation of the intraventricular vancomycin.
Using a one-compartment modelling approach, CSF compartment was added to the plasma modelling. The CSF model equation, with the incorporated plasma model is given below: dA(p)/dt=−clp/vp×A(p)dA(csf)/dt=−clcsf/vcsf×A(csf) Where p is plasma, cl is clearance, v is volume, A is amount, csf is cerebrospinal fluid, dA(p)/dt is change in plasma concentrations with time and dA(csf)/dt is change in cerebrospinal fluid concentrations with time.
In the first instance, parallel dosing was used, and no transfer was assumed between plasma and CSF. Mass transfer in both directions (plasma to CSF; CSF to plasma) was tested using first-order rate constants. We tested 2 covariates of VI and CSF protein, on CSF clearance and volume and CSF clearance respectively.

SMILES: CN[C@H](CC(C)C)C(=O)N[C@H]1C(=O)N[C@@H](CC(N)=O)C(=O)N[C@H]2C(=O)N[C@H]3C(=O)N[C@H](C(=O)N[C@H](C(=O)O)c4cc(O)cc(O)c4-c4cc3ccc4O)[C@H](O)c3ccc(c(Cl)c3)Oc3cc2cc(c3O[C@@H]2O[C@H](CO)[C@@H](O)[C@H](O)[C@H]2O[C@H]2C[C@](C)(N)[C@H](O)[C@H](C)O2)Oc2ccc(cc2Cl)[C@H]1O [vancomycin]
- CSF concentrations ([1]; 8 preterm infants, intraventricular starting doses 3, 5, 10, 15 mg, CSF time after dose 7.39 (0.02-57.37) h, QMS immunoassay): 24.9 (2.5-230.7) mg/L
- plasma concentrations ([1]; preterm infants on concomitant IV vancomycin 15 mg/kg starting dose, plasma time after dose 5.59 (0-14) h): 8.6 (2.2-26.6) mg/L
- time to CSF sterilisation versus CSF AUC (0-24) and C average [2]: shorter time to sterilisation with higher AUC (0-24) and C average
- concentration of maximum microbiocidal effect [3]: 5 to 10 mg/L
- concentration of maximum microbiocidal effect (Staphylococcus aureus): 5 to 10 mg/L
- CSF concentrations achieved ([4]; IV vancomycin regimes 2g-3.5g/day, 6 adult patients with ventriculitis, ref Beach et al., 2017): 1.1 to 6 mg/L
- mean stable vancomycin concentration in the CSF ([4]; IV vancomycin, ref Li et al., 2015): 2 mg/L
- CSF vancomycin concentrations achieved by IV vancomycin ([4]; across the adult and the neonatal population, ref Li et al., 2015, Beach et al., 2017, Reiter and Doron, 1996): 1.1 to 6 mg/L
- CSF vancomycin levels at 72 hours post administration ([5]; 5mg intraventricular vancomycin starting dose, neonatal ventriculitis, ref Matsunaga et al., 2015): 16.5 mg/L
- CSF vancomycin levels maintained ([5]; four intraventricular dose models 3mg to 15mg, preterm infants < 28 weeks gestation, at least ten times above the MIC breakpoint for CoNS, ref Parasuraman et al., 2018): > 10 mg/L
- CSF vancomycin level range ([5]; intraventricular vancomycin, preterm infants < 28 weeks gestation, ref Parasuraman et al., 2018): 2.5 to 230.7 mg/L
- protein bound [6]: 50-55%
- complications, specifically renal effects and ototoxicity [7]: no confirmed complications
- serum vancomycin concentration after intraventricular vancomycin administration ([8]; 10mg intraventricular, ref Pfausler et al., 2003): below measurable concentration
- vancomycin transferred from CSF into plasma ([8]; attributed to the larger volume of plasma compared to CSF, ref Li et al., 2017): inconsequential
- CL, Estimate (%RSE) ([9]; plasma clearance, final one-compartment model, allometrically scaled to 70 kg, 37 plasma samples from 5 preterm infants on IV vancomycin, value (%RSE)): 9.29(5.2) L/h/70 kg
- CL, Bootstrap median (95% CI) ([9]; plasma clearance, non-parametric bootstrap of 1000 samples): 9.5 (8.7 – 10.9) L/h/70 kg
- V, Estimate (%RSE) ([9]; plasma volume of distribution, final one-compartment model, scaled to 70 kg, value (%RSE)): 54.4(11.5) L/70 kg
- V, Bootstrap median (95% CI) ([9]; plasma volume of distribution, non-parametric bootstrap of 1000 samples): 53.5 (47.6 – 119.8) L/70 kg
- CLCSF, Estimate (%RSE) ([10]; CSF clearance, final model, intraventricular vancomycin, 67 CSF samples from 8 preterm infants, value (%RSE)): 0.002(12.9) L/h
- CLCSF, Bootstrap median (95% CI) ([10]; CSF clearance, non-parametric bootstrap of 1000 samples): 0.002 (0.002 - 0.003) L/h
- VCSF, Estimate (%RSE) ([10]; CSF volume of distribution, final model, intraventricular vancomycin, value (%RSE)): 0.109(23.8) L
- VCSF, Bootstrap median (95% CI) ([10]; CSF volume of distribution, non-parametric bootstrap of 1000 samples): 0.11 (0.069 - 0.172) L
- transfer between plasma and CSF ([10]; first-order transfer rate constants tested in both directions in the model, no significant improvement in fit): did not demonstrate an appreciable transfer between plasma and CSF
